PubChem BioAssay AID1259407 (Chemical Carcinogenesis Research Information System (CCRIS), 2018)
Activity calls are given as the source filed them. No rule for the calls is given here.

Test system: CCRIS mutagenicity, Ames/micronucleus/aberration tests
Test: CCRIS mutagenicity studies

C=CC(=O)OCC
mutagenic call (End Point: IN VITRO CHROMOSOMAL ABERRATIONS, Test System: CHO-LB CELLS, Metabolic Activation: NONE): inactive; negative | mutagenic call (End Point: IN VITRO CHROMOSOMAL ABERRATIONS, Test System: CHO-LB CELLS, Metabolic Activation: RAT, LIVER, S-9, AROCLOR 1254): active; positive | mutagenic call (Test System: AMES SALMONELLA TYPHIMURIUM, Strain/Indicator: TA98, Metabolic Activation: HAMSTER, LIVER, S-9, AROCLOR 1254, Method: PREINCUBATION): inactive; negative | mutagenic call (Test System: AMES SALMONELLA TYPHIMURIUM, Strain/Indicator: TA98, Metabolic Activation: NONE, Method: PREINCUBATION): inactive; negative | mutagenic call (Test System: AMES SALMONELLA TYPHIMURIUM, Strain/Indicator: TA98, Metabolic Activation: NONE, Method: STANDARD PLATE): inactive; negative | mutagenic call (Test System: AMES SALMONELLA TYPHIMURIUM, Strain/Indicator: TA98, Metabolic Activation: RAT, LIVER, S-9, AROCLOR 1254, Method: PREINCUBATION): inactive; negative | mutagenic call (Test System: AMES SALMONELLA TYPHIMURIUM, Strain/Indicator: TA98, Metabolic Activation: RAT, LIVER, S-9, AROCLOR 1254, Method: STANDARD PLATE): inactive; negative | mutagenic call (Test System: AMES SALMONELLA TYPHIMURIUM, Strain/Indicator: TA98, Metabolic Activation: RAT, LIVER, S-9, SODIUM PHENOBARBITAL, Method: STANDARD PLATE): inactive; negative | mutagenic call (Test System: AMES SALMONELLA TYPHIMURIUM, Strain/Indicator: TA100, Metabolic Activation: HAMSTER, LIVER, S-9, AROCLOR 1254, Method: PREINCUBATION): inactive; negative | mutagenic call (Test System: AMES SALMONELLA TYPHIMURIUM, Strain/Indicator: TA100, Metabolic Activation: NONE, Method: PREINCUBATION): inactive; negative | mutagenic call (Test System: AMES SALMONELLA TYPHIMURIUM, Strain/Indicator: TA100, Metabolic Activation: NONE, Method: STANDARD PLATE): inactive; negative | mutagenic call (Test System: AMES SALMONELLA TYPHIMURIUM, Strain/Indicator: TA100, Metabolic Activation: RAT, LIVER, S-9, AROCLOR 1254, Method: PREINCUBATION): inactive; negative | mutagenic call (Test System: AMES SALMONELLA TYPHIMURIUM, Strain/Indicator: TA100, Metabolic Activation: RAT, LIVER, S-9, AROCLOR 1254, Method: STANDARD PLATE): inactive; negative | mutagenic call (Test System: AMES SALMONELLA TYPHIMURIUM, Strain/Indicator: TA100, Metabolic Activation: RAT, LIVER, S-9, SODIUM PHENOBARBITAL, Method: STANDARD PLATE): inactive; negative | mutagenic call (Test System: AMES SALMONELLA TYPHIMURIUM, Strain/Indicator: TA1535, Metabolic Activation: HAMSTER, LIVER, S-9, AROCLOR 1254, Method: PREINCUBATION): inactive; negative | mutagenic call (Test System: AMES SALMONELLA TYPHIMURIUM, Strain/Indicator: TA1535, Metabolic Activation: NONE, Method: PREINCUBATION): inactive; negative | mutagenic call (Test System: AMES SALMONELLA TYPHIMURIUM, Strain/Indicator: TA1535, Metabolic Activation: NONE, Method: STANDARD PLATE): inactive; negative | mutagenic call (Test System: AMES SALMONELLA TYPHIMURIUM, Strain/Indicator: TA1535, Metabolic Activation: RAT, LIVER, S-9, AROCLOR 1254, Method: PREINCUBATION): inactive; negative | mutagenic call (Test System: AMES SALMONELLA TYPHIMURIUM, Strain/Indicator: TA1535, Metabolic Activation: RAT, LIVER, S-9, AROCLOR 1254, Method: STANDARD PLATE): inactive; negative | mutagenic call (Test System: AMES SALMONELLA TYPHIMURIUM, Strain/Indicator: TA1535, Metabolic Activation: RAT, LIVER, S-9, SODIUM PHENOBARBITAL, Method: STANDARD PLATE): inactive; negative | mutagenic call (Test System: AMES SALMONELLA TYPHIMURIUM, Strain/Indicator: TA1537, Metabolic Activation: HAMSTER, LIVER, S-9, AROCLOR 1254, Method: PREINCUBATION): inactive; negative | mutagenic call (Test System: AMES SALMONELLA TYPHIMURIUM, Strain/Indicator: TA1537, Metabolic Activation: NONE, Method: PREINCUBATION): inactive; negative | mutagenic call (Test System: AMES SALMONELLA TYPHIMURIUM, Strain/Indicator: TA1537, Metabolic Activation: NONE, Method: STANDARD PLATE): inactive; negative | mutagenic call (Test System: AMES SALMONELLA TYPHIMURIUM, Strain/Indicator: TA1537, Metabolic Activation: RAT, LIVER, S-9, AROCLOR 1254, Method: PREINCUBATION): inactive; negative | mutagenic call (Test System: AMES SALMONELLA TYPHIMURIUM, Strain/Indicator: TA1537, Metabolic Activation: RAT, LIVER, S-9, AROCLOR 1254, Method: STANDARD PLATE): inactive; negative | mutagenic call (Test System: AMES SALMONELLA TYPHIMURIUM, Strain/Indicator: TA1537, Metabolic Activation: RAT, LIVER, S-9, SODIUM PHENOBARBITAL, Method: STANDARD PLATE): inactive; negative | mutagenic call (Test System: AMES SALMONELLA TYPHIMURIUM, Strain/Indicator: TA1538, Metabolic Activation: NONE, Method: STANDARD PLATE): inactive; negative | mutagenic call (Test System: AMES SALMONELLA TYPHIMURIUM, Strain/Indicator: TA1538, Metabolic Activation: RAT, LIVER, S-9, AROCLOR 1254, Method: STANDARD PLATE): inactive; negative | mutagenic call (Test System: AMES SALMONELLA TYPHIMURIUM, Strain/Indicator: TA1538, Metabolic Activation: RAT, LIVER, S-9, SODIUM PHENOBARBITAL, Method: STANDARD PLATE): inactive; negative | mutagenic call (Test System: Ames Salmonella typhimurium, Strain/Indicator: YG7108pin3ERb5, Metabolic Activation: None, Method: Standard plate): inactive; negative | mutagenic call (Test System: CHINESE HAMSTER OVARY, Strain/Indicator: CHO-K1-BH4 (HGPRT)/6-THIOGUANINE, Metabolic Activation: NONE, Method: SUSPENSION/PLATE): active; positive | mutagenic call (Test System: CHINESE HAMSTER OVARY, Strain/Indicator: CHO-K1-BH4 (HGPRT), Metabolic Activation: NONE, Method: MONOLAYER): active; positive | mutagenic call (Test System: CHINESE HAMSTER OVARY, Strain/Indicator: CHO-K1-BH4 (HGPRT), Metabolic Activation: NONE, Method: SUSPENSION/PLATE): active; positive | mutagenic call (Test System: MOUSE LYMPHOMA, Strain/Indicator: L5178Y (TK+/TK-), Metabolic Activation: RAT, LIVER, S-9, AROCLOR 1254, Method: SUSPENSION/PLATE): active; positive. reevaluation of results: positive | mutagenic call (Test System: MOUSE LYMPHOMA, Strain/Indicator: L5178Y (TK+/TK-), Metabolic Activation: RAT, LIVER, S-9, AROCLOR, Method: SUSPENSION/PLATE): active; positive
